The target in one test is SCTR (secretin receptor) (Homo sapiens, UniProt P47872). Nature of the test: cAMP accumulation assay, agonist mode. It counts as cell-based. Particulars: CHO-K1, read-out: Emax in cAMP accumulation assays. (Changes in cAMP serve as a functional read-out for many G protein-coupled receptors.)
The target in the next test is SCTR-SmBiT (UniProt P47872 23-440). Nature of the test: cell-based or functional assay.
Sequence of SCTR-SmBiT (P47872 23-440): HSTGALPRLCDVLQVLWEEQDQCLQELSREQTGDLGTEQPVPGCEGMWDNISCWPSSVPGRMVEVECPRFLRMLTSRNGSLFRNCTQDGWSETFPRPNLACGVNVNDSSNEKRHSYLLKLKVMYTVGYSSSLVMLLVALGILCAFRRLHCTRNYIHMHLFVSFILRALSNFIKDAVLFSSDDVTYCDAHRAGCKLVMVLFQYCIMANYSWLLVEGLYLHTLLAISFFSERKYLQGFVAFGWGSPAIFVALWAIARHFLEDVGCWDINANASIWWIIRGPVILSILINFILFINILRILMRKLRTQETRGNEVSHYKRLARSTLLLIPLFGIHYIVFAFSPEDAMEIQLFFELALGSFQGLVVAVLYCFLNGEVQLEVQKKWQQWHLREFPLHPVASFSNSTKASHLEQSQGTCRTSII

Sequence of SCTR (secretin receptor) (P47872 23-440): as above

Consider `CC(C)C[C@H](NC(=O)CNC(=O)[C@H](CCC(N)=O)NC(=O)[C@H](CC(C)C)NC(=O)[C@H](CC(C)C)NC(=O)[C@H](CCCNC(=N)N)NC(=O)[C@H](CCC(N)=O)NC(=O)[C@H](CC(C)C)NC(=O)[C@H](CCCNC(=N)N)NC(=O)[C@H](C)NC(=O)CNC(=O)[C@H](CCC(=O)O)NC(=O)[C@H](CCCNC(=N)N)NC(=O)[C@H](CC(C)C)NC(=O)[C@H](CCCNC(=N)N)NC(=O)[C@H](CO)NC(=O)[C@H](CC(C)C)NC(=O)[C@H](CCC(=O)O)NC(=O)[C@H](CO)NC(=O)[C@@H](NC(=O)[C@H](Cc1ccccc1)NC(=O)[C@@H](NC(=O)CNC(=O)[C@@H](N)CC(=O)O)[C@@H](C)O)[C@@H](C)O)C(=O)N[C@H](C(N)=O)C(C)C` [Sec(3–27)], for which the Emax – broadly, the maximal effect, on the per cent scale that the assay sets – at SCTR (secretin receptor) is 30%.
Take HSDGTFTSELSRLREGARLQRLL [Sec(1–23)]: the “β-arrestin-2 recruitment (NanoBiT, SCTR-SmBiT with LgBiT-ARRB2), EC50” value in the test with SCTR-SmBiT was found to be 1300 nM.

(Values after PMC8278649 (SLAS discovery : advancing life sciences R & D, 2020).)
